Paper PMC5527305, “Prevention of Ophthalmia Neonatorum Caused by Neisseria gonorrhoeae Using a Fatty Acid-Based Formulation” (mBio, 2017)
In brackets after ≈: the same amount, converted by molar mass. Entries after “also recorded” stand apart in the source; their conditions may differ. Like-named read-outs stand apart in the source and are kept apart here.

Columns and labels:
[1] = system: N. gonorrhoeae strain NCCP11945; assay: Log reduction assay in GC broth, 2-min exposure; type: cell-based, Neisseria gonorrhoeae; settings: for log reduction at 1000 µM: Neisseria gonorrhoeae, NCCP11945, 2 min, 1 mM, read-out: Log reduction at 1 mM (calculated log reduction in viable bacteria); for log reduction at 1000 µM / Log reduction at 1 mM (calculated log reduction in viable bacteria): maximum score 6 = all cells killed
Description: (§1) To find potential candidates, 37 organic acids, esters, and salts were tested in a two-tiered screening process. These candidates were chosen based on the carbon chain lengths of the fatty acids, the presence or absence of saturation, and modifications to represent a diverse selection of organic acid candidates. The first screen aimed to determine the ability of each compound to inhibit the growth of N. gonorrhoeae strain NCCP11945 at 1 mM in GC solid media (Table 1). This strain was chosen due to its relatively recent isolation, its antibiotic resistance profile, and the availability of a complete genome sequence. Those candidates able to inhibit the growth of N. gonorrhoeae strain NCCP11945 were investigated in a second assay. The second assay tested the ability of each compound to cause at least a 4-log reduction in viable bacteria at 1 mM with a 2-min exposure time (Table 1).
(§2) Log reductions were done as described by Bergsson and coworkers ([18]). Briefly, cells were suspended in GC broth (18 g/liter GC base [Oxoid, Limited] with added defined supplements) to an optical density at 520 nm of 0.3, which is approximately equivalent to 10^7 to 10^8 cells per ml ([38]). […] The contents of the tubes were then mixed at room temperature for 2 min and immediately diluted in a 10-fold dilution series to 10^−4. The dilutions were plated by spreading 10 µl on a quarter of a plate; a 100-µl neat solution was also plated. Plates were then incubated at 37°C for 48 h, with all samples plated in duplicate. […] Additional testing at lower concentrations was also done on the eight clinical isolates of European origin.

[2] = system: N. gonorrhoeae strain NCCP11945; assay: Growth inhibition screen on GC solid media containing 1 mM candidate; type: cell-based, Neisseria gonorrhoeae; settings: 1 mM candidate in GC agar media; Yes = strain NCCP11945 did not grow
Description: as §1
(§3) The well-characterized N. gonorrhoeae NCCP11945 strain ([36]) was used in the screening stage. Eight isolates obtained from Public Health England, representing circulating isolates from various European locations, were used in the log reduction assays. All isolates were cultured for 24 h prior to testing by plating on GC solid medium (Oxoid Limited, Hampshire, United Kingdom) with Kellogg supplements and incubation at 37°C and 5% CO2 ([37]).

bovine RBCs = assay: Red blood cell (RBC) lysis assay; type: cell-based
Description: Whole bovine blood was obtained from a local slaughter house (ABP), adding 90 ml blood to 10 ml 110 mM trisodium citrate anticoagulant. RBCs were isolated the same day. The RBCs were washed by three repeats of centrifugation (1,500 × g for 10 min) and resuspension in phosphate-buffered saline (PBS) with 10 mM glucose (PBSG). Testing was done following the guidelines of the European Union Reference Laboratory for alternatives to animal testing (EURL-ECVAM) ([22]). The organic acids were solubilized in dimethyl sulfoxide (DMSO) and diluted to a maximum DMSO concentration of 10%. In a 2-ml centrifuge tube, 750 µl of the sample was added to 250 µl RBCs. Controls used in the assay were a complete lysis control (deionized water) and a fragility control (PBSG–10% DMSO). Samples were shaken at room temperature for 1 h and then centrifuged at 14,000 × g for 2 min. An aliquot of 750 µl of the supernatant was taken and its absorbance at 451 nm measured.

[3] = system: gonococcal cells (isolate NCCP 11945); assay: Log reduction in artificial tear fluid with or without calcium chloride; type: cell-based, Neisseria gonorrhoeae; settings: for Reduction in bacterial cell number in artificial tear fluid containing calcium chloride / Antigonococcal properties in tear fluid made without calcium chloride: 1 mM candidate, 2 min; for Reduction in bacterial cell number in artificial tear fluid containing calcium chloride: with calcium; for Effect of calcium in artificial tear fluid on antimicrobial effect: calcium 1 mM, Fig. 2
Description: The antigonococcal properties of the seven selected fatty acids were tested in artificial tear fluid, which contained calcium chloride. The addition of 1 mM lauric acid, tridecanoic acid, or sodium dodecanoate gave no reduction in bacterial cell number after exposure, in contrast to the results seen when they were tested in culture medium (Fig. 2). […] This was most likely due to the negative effect of calcium on the aqueous solubility of these candidates.
Artificial tear fluid was made as described by Mirejovsky and others ([39]) with or without calcium chloride. […] As with the previous log reductions, 10^7 gonococcal cells (isolate NCCP 11945) were suspended in GC broth. The cell suspension was centrifuged to remove the culture medium, and the bacteria were resuspended in the tear fluid. This was then added to the concentrated organic acid candidates. The cells were then enumerated again after 2 min of exposure to estimate any reduction in cell number due to the exposure to the organic acid.

[4] = system: nine gonococcal isolates (strain NCCP11945 and eight isolates from Public Health England); assay: Minimum bactericidal concentration by log reduction against nine gonococcal isolates; type: cell-based, Neisseria gonorrhoeae; settings: for Killing of all gonococcal cells for all isolates: 1 mM; for MBC: lowest concentration giving mean log reduction above 4 from a 2-min exposure
Excerpt: The seven candidates were further tested against nine gonococcal isolates, including strain NCCP11945 and eight isolates from Public Health England, to find their minimal bactericidal concentration (MBC). This was defined as the lowest concentration tested to give an average 4-log10 reduction in bacterial count after a 2-min exposure. […] Any candidate that killed all gonococcal cells in the cell suspension was given a log reduction score of six.
as §3, §2

bovine cornea = assay: Bovine corneal opacity and permeability (BCOP) test
Description: Bovine eyes were collected from a local slaughter house (ABP, Guildford, Surrey, United Kingdom) and were transported in cold saline solution for testing at the laboratory. Each eye was first visually examined for signs of damage before use. The test was conducted as detailed by Abdelkader and coworkers ([21]). The exposure time of the test substances was 30 s. The selected bactericidal compounds were tested at 1 mM in saline solution, with a corresponding vehicle control (1% ethanol–saline solution) also performed. […] The test area of the cornea was then washed with 10 ml saline solution. Corneal damage to the test area was assessed by fluorescein staining and examination under a cobalt blue filter. Pathological scoring based on opacity, epithelial integrity, and epithelial detachment was done in accordance with previous publications ([19]). Each of the seven lead candidates was tested in triplicate, and each test was performed on a separate day using a different batch of eyeballs. Corneal histology was done as outlined by Abdelkader and coworkers ([21]) by evaluating the damage to the epithelial layer and stroma of the cornea after hematoxylin and eosin staining.

[5] = Neisseria gonorrhoeae, 2 min, read-out: MBC

Row | SMILES | Log reduction at 1 mM: at least a 4-log reduction in viable bacteria (Yes/No) [1] | log reduction at 1000 µM [1] | Growth inhibition [2] | other results
1 | CCCCCCCC(=O)OCC(O)CO (racemic) [1-octanoyl-rac-glycerol] | No | 0 | Yes | 
2 | O=C(O)CCCCC(=O)O [Adipic acid] |  |  | No | 
3 | CCCCC/C=C\C/C=C\C/C=C\C/C=C\CCCC(=O)O [Arachidonic acid] |  |  | Yes | 
4 | O=C(O)CCCCCCCC(=O)O [Azelaic acid] |  |  | No | 
5 | CCCCCCCCCC(=O)O [Capric acid/decanoic acid] |  |  | No | 
6 | CCCCCCCC(=O)O [Caprylic/octanoic acid] |  |  | No | 
7 | CCCCCCCC/C=C/CCCCCCCC(=O)O [Elaidic acid] | No | 0.5 | Yes | 
8 | CCCCCCCC/C=C\CCCCCCCCCCCC(=O)O [Erucic acid] | No | 0 | Yes | 
9 | CCCCCCCCCCCCCCCCC(=O)O [Heptadecylic acid] |  |  | No | 
10 | CCCCCCCCCCCCCC(=O)OC(C)C [Isopropyl myristate] |  |  | No | 
11 | CCCCCCCCCCCCCCCC(=O)OC(C)C [Isopropyl palmitate] |  |  | No | 
12 | CCCCCCCCCCCC(=O)O [Lauric acid] | Yes |  | Yes | H50 concentration relative to MBC (bovine RBCs): greater than their MBCs; Reduction in bacterial cell number in artificial tear fluid containing calcium chloride [3]: no reduction; Antigonococcal properties in tear fluid made without calcium chloride [3]: completely restored; Effect of calcium in artificial tear fluid on antimicrobial effect [3]: inactivated; Log reduction at 1 mM (calculated log reduction in viable bacteria) [1]: > 6 log10; Killing of all gonococcal cells for all isolates ([4]; 2 min): killed all gonococcal cells for all isolates; MBC [4]: 750 µM (≈ 150 µg/mL)
13 | CCCCC/C=C\C/C=C\CCCCCCCC(=O)O [Linoleic acid] | No | 1.6 | Yes | 
14 | CCCCCCCCCCCCCC(=O)OCC(O)CO (stereo not drawn) [Monomyristin] | No |  | Yes | Log reduction at 1 mM (calculated log reduction in viable bacteria) [1]: 0.6 log10
15 | CCCCCCCCCCCCCC(=O)O [Myristic acid] | No | 1.5 | Yes | 
16 | CCCCCCCC/C=C\CCCCCCCC(=O)O [Oleic acid] | No | 1 | Yes | 
17 | CCCCCCCCCCCCCCCC(=O)O [Palmitic acid] |  |  | No | 
18 | CCCCCC/C=C\CCCCCCCC(=O)O [Palmitoleic acid] | Yes | > 6 | Yes | H50 concentration relative to MBC (bovine RBCs; H50 = concentration to lyse 50% of RBCs, MBC from Table 1): lower than their minimum bactericidal concentration; Killing of all gonococcal cells for all isolates ([4]; 2 min): did not; MBC [4, 5]: 500 µM (≈ 127 µg/mL)
19 | CCCCCCCCCCCCCCC(=O)O [Pentadecylic acid] | No |  | Yes | Log reduction at 1 mM (calculated log reduction in viable bacteria) [1]: 0.5 log10
20 | O=C(O)CCCCCC(=O)O [Pimelic acid] |  |  | No | 
21 | CCCCCC[C@@H](O)C/C=C\CCCCCCCC(=O)O [Ricinoleic acid] | No |  | Yes | Log reduction at 1 mM (calculated log reduction in viable bacteria) [1]: 3.5 log10
22 | O=C(O)CCCCCCCCC(=O)O [Sebacic acid] |  |  | No | 
23 | CCCCCCCCCCCC(=O)[O-].[Na+] [Sodium dodecanoate] | Yes |  | Yes | Mean cumulative BCOP score (bovine cornea; 1 mM in saline solution, 30 s exposure, triplicate): lower than 0.5; Fluorescein staining of cornea (bovine cornea; 1 mM, around rubber application ring): any sign of fluorescein staining; BCOP irritancy classification (bovine cornea; candidates 1 mM in saline, controls 0.5 M NaOH, 100% acetone, 30 s exposure): nonirritants; Reduction in bacterial cell number in artificial tear fluid containing calcium chloride [3]: no reduction; Antigonococcal properties in tear fluid made without calcium chloride [3]: completely restored; Effect of calcium in artificial tear fluid on antimicrobial effect [3]: inactivated; Log reduction at 1 mM (calculated log reduction in viable bacteria) [1]: > 6 log10; Killing of all gonococcal cells for all isolates ([4]; 2 min): killed all gonococcal cells for all isolates; MBC [4]: 750 µM
24 | CCCCCCCCCCCCCC(=O)[O-].[Na+] [Sodium myristate] | No |  | Yes | Log reduction at 1 mM (calculated log reduction in viable bacteria) [1]: 0.5 log10
25 | C/C=C/C=C/C(=O)O [Sorbic acid] |  |  | No | 
26 | CCCCCCCCCCCCCCCCCC(=O)O [Stearic acid] |  |  | No | 
27 | O=C(O)CCCCCCC(=O)O [Suberic acid] |  |  | No | 
28 | O=C(O)CCC(=O)O [Succinic acid] |  |  | No | 
29 | CCCCCCCCCCCCC(=O)O [Tridecanoic acid] | Yes | > 6 | Yes | H50 concentration relative to MBC (bovine RBCs): greater than their MBCs; RBC lysis (hemolysis) (bovine RBCs; 1 h incubation, bovine RBCs): did not lyse RBCs at any concentration investigated; also recorded: did not cause any hemolysis; Reduction in bacterial cell number in artificial tear fluid containing calcium chloride [3]: no reduction; Antigonococcal properties in tear fluid made without calcium chloride [3]: completely restored; Effect of calcium in artificial tear fluid on antimicrobial effect [3]: inactivated; Killing of all gonococcal cells for all isolates ([4]; 2 min): did not; MBC [4, 5]: 750 µM (≈ 161 µg/mL)
30 | CCCCCCCCCCC(=O)O [Undecanoic acid] | No | 0.2 | Yes | 
